Experimental findings from publication PMC7206685, “Interactions between host biogenic amines and sand fly salivary yellow-related proteins” (Parasites & Vectors, 2020) are described below.

Each structure is given as a SMILES string.

The experiment addresses T1, PagSP04 (Phlebotomus argentipes, UniProt Q0ZSU5).
T1 construct: secreted recombinant protein from HEK293S GnTI- cells (pTW5sec); IMAC and size exclusion
T1 sequence (Q0ZSU5 19-398): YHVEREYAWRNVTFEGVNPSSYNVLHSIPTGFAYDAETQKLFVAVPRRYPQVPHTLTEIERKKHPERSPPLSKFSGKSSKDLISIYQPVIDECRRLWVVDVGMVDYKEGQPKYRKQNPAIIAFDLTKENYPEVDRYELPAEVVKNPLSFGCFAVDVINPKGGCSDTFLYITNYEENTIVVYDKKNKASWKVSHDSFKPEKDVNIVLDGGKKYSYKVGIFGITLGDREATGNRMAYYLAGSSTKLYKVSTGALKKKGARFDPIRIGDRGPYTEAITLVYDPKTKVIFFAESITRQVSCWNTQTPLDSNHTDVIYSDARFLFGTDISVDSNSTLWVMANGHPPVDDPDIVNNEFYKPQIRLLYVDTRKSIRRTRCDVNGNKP
As to the kind of experiment: microscale thermophoresis. Type of experiment: binding. From the text: microscale thermophoresis on PagSP04
On the technique in general: MST reads how a fluorescent partner responds to local heating, with and without ligand.

As for `NCCc1c[nH]cn1` [Histamine], the affinity, expressed as Kd, was 9.3 µM. As for `NCCc1c[nH]c2ccc(O)cc12` [Serotonin], binding was put at a Kd of 0.0869 µM.

The term Kd denotes the free concentration of one partner at which half of the binding sites on the other are occupied at equilibrium, for simple one-to-one binding.
